Test results taken from PubChem BioAssay (NCI).
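Five concentrations, 48 hours, 96-well plates. TGI denotes the concentration required for complete inhibition of growth.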

Key:
Assay in all cases: NCI tumour cell line growth inhibition, 48 h
BT-549 breast = test system: BT-549 breast
LOX IMVI melanoma = test system: LOX IMVI melanoma
NCI-H460 lung = test system: NCI-H460 lung
OVCAR-5 ovarian = test system: OVCAR-5 ovarian
OVCAR-8 ovarian = test system: OVCAR-8 ovarian
SF-268 CNS = test system: SF-268 CNS
SF-295 CNS = test system: SF-295 CNS
SK-OV-3 ovarian = test system: SK-OV-3 ovarian
SN12C renal = test system: SN12C renal
T-47D breast = test system: T-47D breast

| SMILES | TGI (BT-549 breast) | TGI (LOX IMVI melanoma) | TGI (NCI-H460 lung) | TGI (OVCAR-5 ovarian) | TGI (OVCAR-8 ovarian) | TGI (SF-268 CNS) | TGI (SF-295 CNS) | TGI (SK-OV-3 ovarian) | TGI (SN12C renal) | TGI (T-47D breast) |
| --- | --- | --- | --- | --- | --- | --- | --- | --- | --- | --- |
| OC1(c2ccc(Cl)cc2)c2ccccc2C2=Nc3ccccc3CN21 (stereo not given) | > 100 µM | > 100 µM | > 100 µM | > 100 µM | 38.2 µM | > 100 µM | > 50.4 µM | > 100 µM | > 79.6 µM | > 100 µM |
| N#CC(C(=O)c1ccccc1F)c1nc2cc(C(F)(F)F)ccc2s1 (stereo not given) | 69.4 µM | 36.7 µM | > 100 µM | 89.6 µM | > 100 µM | > 100 µM | 73.4 µM | > 100 µM | 67.2 µM | > 100 µM |
| CC(C)C[C@H](NC(=O)[C@@H](Cc1cccc2ccccc12)NC(=O)N1CCOCC1)B(O)O | 18.1 µM | 5.98 µM | 40.6 µM | 13.5 µM | 44.9 µM | 15.1 µM | 43.8 µM | 40.6 µM | 20.4 µM | 5.43 µM |
| COc1ccc(OC)c2c1C[C@@H]1C(C#N)N3[C@H](Cc4c(OC)ccc(OC)c4[C@@H]3C)C(=O)N1[C@H]2C (stereo not given in full) | 4.09 µM | 5.95 µM | 48 µM | 23.7 µM | 9.93 µM | 6.71 µM | 35.7 µM | 29.4 µM | > 50.2 µM | 15.1 µM |
| Cc1cc(SCC(=O)c2ccc(Br)cc2)cc(C)[o+]1 | 98.4 µM | > 100 µM | 76.2 µM | 69.9 µM | > 100 µM | > 100 µM | 65.6 µM | > 100 µM | > 100 µM | 48.8 µM |
| O=[N+]([O-])c1ccccc1S(=O)(=O)N1CCCc2cc(Cl)ccc21 | > 100 µM | > 100 µM | > 100 µM | > 100 µM | > 100 µM | > 100 µM | > 100 µM | > 100 µM | > 100 µM | 96.5 µM |
| COc1ccc2c(c1)CCC(CN1CCN(CCOC(c3ccc(F)cc3)c3ccc(F)cc3)CC1)=C2 | 35.6 µM | 30.3 µM | 34.2 µM | 97.4 µM | 63.2 µM | > 100 µM | 87.2 µM | > 100 µM | 26.3 µM | > 100 µM |
| CCOC(=O)c1ccc(N=C/C=C(\Nc2ccc(C(=O)OCC)cc2)c2ccc3ccccc3c2)cc1 | 42.4 µM | 34.4 µM | > 100 µM | > 100 µM | > 100 µM | > 100 µM | > 100 µM | > 100 µM | 58.6 µM | 43.2 µM |
| COC(=O)CCCc1ccc2c(c1)CCC2 | > 100 µM | > 100 µM | > 100 µM | > 100 µM | > 100 µM | > 100 µM | > 100 µM | > 100 µM | > 100 µM | > 100 µM |
| COc1cccc(-n2nnc3c(N)nc(N)nc32)c1 | > 100 µM | > 100 µM | > 100 µM | > 100 µM | > 100 µM | > 100 µM | > 100 µM | > 100 µM | > 100 µM | > 100 µM |
